# Residues, ends and D or L forms follow the SMILES beside them.
# Experiments:
# Assay in all cases: In-house protein microarrays (with or without 5 mM DTT), protein named per line
# Type in all cases: binding
# [1] = target: T1, SH2 and PTB domains (Homo sapiens, UniProt O43639); settings: protein NCK2
# T1 construct: thioredoxin; made in house; host or cells: BL21(DE3)pLysS E. coli
# Experimental: (§1) 300 pL of purified recombinant proteins and a thioredoxin tag control were spotted at a concentration of ∼40 µM in duplicate onto aldehyde-coated microscope slides (Erie Scientific Company, Portsmouth, NH) using a Nano-Plotter (NP) 2.1/E noncontact microarrayer (GeSiM, Munich, Germany). 16 identical microarrays per slide were printed in a 2×8 (column by row) format with distances of 9 mm between individual arrays; each array consisted of a 14×14 configuration of spots 400 µm apart. Following printing at a constant humidity level of 50%, slides were desiccated overnight and stored at −80°C. For peptide probing, array slides were transferred to 96-well microplates (TeleChem International, Inc., Sunnyvale, CA) and sandwiched with silicone gaskets. Prior to peptide addition, aldehyde sites were quenched with buffer B (20 mM HEPES, 100 mM KCl, 0.1% Tween-20, 5 mM DTT, pH 7.8) containing 1% bovine serum albumin (BSA) (w/v) for one hour at room temperature; moderate agitation was applied in a plate shaker (IKA, Germany) to displace glycerol from the surface area of protein sample spots. […] The arrays were subsequently washed once with 300 µL of buffer B and once with 300 µL of ddH2O. Residual water was removed by centrifugation; slides were stored under desiccation in the dark until analysis.
# (§2) Microarray slides were scanned at a resolution of 10 µm using a GenePix 4000B microarray scanner and analyzed using GenePix Pro v6.0 software (Molecular Devices, Sunnyvale, CA). To independently visualize protein spots irrespective of peptide binding, samples were printed simultaneously with 400 nM of Cyanine-5 (Cy5) labeled bovine serum albumin (BSA). […] Following spot layout identification via Cy5 labeled BSA, the mean fluorescence intensity of rhodamine for duplicate protein spots was quantified and normalized by subtracting the corresponding mean fluorescence intensity of thioredoxin. Normalized fluorescence values were then imported into MATLAB and KDs determined as previously described.
# [2] = target: T2, SH2 and PTB domains (Homo sapiens, UniProt P07947); settings: protein YES1
# T2 construct: thioredoxin; made in house; host or cells: BL21(DE3)pLysS E. coli
# Experimental: as §1, §2
# [3] = target: T3, SH2 and PTB domains (Homo sapiens, UniProt P12931); settings: protein SRC
# T3 construct: thioredoxin; made in house; host or cells: BL21(DE3)pLysS E. coli
# Experimental: as §1, §2
# [4] = target: T4, SH2 and PTB domains (Homo sapiens, UniProt P16885)
# T4 construct: thioredoxin; made in house; host or cells: BL21(DE3)pLysS E. coli
# T4 sequence (P16885 1-1265): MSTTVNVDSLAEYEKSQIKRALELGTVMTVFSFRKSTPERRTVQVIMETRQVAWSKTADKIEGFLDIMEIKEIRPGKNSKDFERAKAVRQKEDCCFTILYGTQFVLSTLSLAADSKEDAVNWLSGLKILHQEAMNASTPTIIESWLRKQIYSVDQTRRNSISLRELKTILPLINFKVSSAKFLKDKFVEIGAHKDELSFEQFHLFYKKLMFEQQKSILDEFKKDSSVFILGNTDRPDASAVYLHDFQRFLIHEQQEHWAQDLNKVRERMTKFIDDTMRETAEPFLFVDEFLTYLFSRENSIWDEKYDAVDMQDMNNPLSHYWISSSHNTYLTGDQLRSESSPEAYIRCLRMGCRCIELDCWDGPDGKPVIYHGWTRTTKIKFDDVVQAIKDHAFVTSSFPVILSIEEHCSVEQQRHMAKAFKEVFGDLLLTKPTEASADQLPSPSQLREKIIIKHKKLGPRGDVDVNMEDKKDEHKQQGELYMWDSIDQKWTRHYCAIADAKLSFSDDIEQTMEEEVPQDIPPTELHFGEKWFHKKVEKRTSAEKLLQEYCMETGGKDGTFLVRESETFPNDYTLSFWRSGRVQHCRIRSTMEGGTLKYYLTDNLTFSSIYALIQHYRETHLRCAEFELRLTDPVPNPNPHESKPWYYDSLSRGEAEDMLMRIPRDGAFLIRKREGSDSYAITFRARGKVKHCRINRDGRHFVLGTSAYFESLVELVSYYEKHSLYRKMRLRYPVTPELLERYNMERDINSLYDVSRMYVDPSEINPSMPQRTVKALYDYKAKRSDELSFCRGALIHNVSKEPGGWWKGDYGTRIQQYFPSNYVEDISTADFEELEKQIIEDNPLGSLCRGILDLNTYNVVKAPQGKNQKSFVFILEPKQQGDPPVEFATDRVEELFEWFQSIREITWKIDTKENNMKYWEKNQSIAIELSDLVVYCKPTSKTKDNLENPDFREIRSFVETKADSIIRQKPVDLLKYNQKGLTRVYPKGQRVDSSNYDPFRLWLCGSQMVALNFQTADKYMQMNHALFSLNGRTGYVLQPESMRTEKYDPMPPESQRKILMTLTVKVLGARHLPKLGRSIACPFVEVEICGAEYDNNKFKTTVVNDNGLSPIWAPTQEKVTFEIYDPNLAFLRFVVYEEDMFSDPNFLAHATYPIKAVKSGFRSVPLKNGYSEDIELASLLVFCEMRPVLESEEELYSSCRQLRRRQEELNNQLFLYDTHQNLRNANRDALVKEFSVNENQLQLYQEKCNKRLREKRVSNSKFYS
# Experimental: as §1, §2
# [5] = target: T5, SH2 and PTB domains (Homo sapiens, UniProt P43405)
# T5 construct: thioredoxin; made in house; host or cells: BL21(DE3)pLysS E. coli
# Experimental: as §1, §2
# [6] = target: T6, SH2 and PTB domains (Homo sapiens, UniProt P51451); settings: protein BLK
# T6 construct: thioredoxin; made in house; host or cells: BL21(DE3)pLysS E. coli
# Experimental: as §1, §2
# [7] = target: T7, SH2 and PTB domains (Homo sapiens, UniProt Q92569)
# T7 construct: thioredoxin; made in house; host or cells: BL21(DE3)pLysS E. coli
# Experimental: as §1, §2
# [8] = target: T8, SH2 and PTB domains (Homo sapiens, UniProt Q9BRG2); settings: protein SH2D3A
# T8 construct: thioredoxin; made in house; host or cells: BL21(DE3)pLysS E. coli
# Experimental: as §1, §2
# [9] = PM assay replicate # 39336, array fabrication # 39329
# [10] = PM assay replicate # 39337, array fabrication # 39329
# [11] = PM assay replicate # 39603, array fabrication # 39392
# [12] = protein PLCG2-NC, PM assay replicate # 39337, array fabrication # 39329
# [13] = protein SYK-NC, PM assay replicate # 39337, array fabrication # 39329
# [14] = protein PIK3R3-NC, PM assay replicate # 39337, array fabrication # 39329
# [15] = PM assay replicate # 39307, array fabrication # 39286
# [16] = PM assay replicate # 39351, array fabrication # 39336
# [17] = PM assay replicate # 39352, array fabrication # 39336
# T6 sequence (P51451 whole entry, the tested form may be a part): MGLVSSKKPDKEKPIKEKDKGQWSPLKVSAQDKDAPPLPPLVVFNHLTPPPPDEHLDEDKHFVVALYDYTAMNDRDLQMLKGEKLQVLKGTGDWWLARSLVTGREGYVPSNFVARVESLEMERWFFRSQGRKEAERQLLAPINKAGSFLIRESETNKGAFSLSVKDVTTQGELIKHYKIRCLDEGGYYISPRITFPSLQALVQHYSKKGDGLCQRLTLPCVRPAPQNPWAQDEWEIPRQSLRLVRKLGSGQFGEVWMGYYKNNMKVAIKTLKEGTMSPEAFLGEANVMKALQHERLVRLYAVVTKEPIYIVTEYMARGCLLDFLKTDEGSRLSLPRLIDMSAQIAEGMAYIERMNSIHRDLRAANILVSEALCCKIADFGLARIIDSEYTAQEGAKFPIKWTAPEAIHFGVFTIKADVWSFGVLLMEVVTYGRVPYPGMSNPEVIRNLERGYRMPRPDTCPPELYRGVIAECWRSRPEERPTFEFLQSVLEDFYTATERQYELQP
# T3 sequence (P12931 whole entry, the tested form may be a part): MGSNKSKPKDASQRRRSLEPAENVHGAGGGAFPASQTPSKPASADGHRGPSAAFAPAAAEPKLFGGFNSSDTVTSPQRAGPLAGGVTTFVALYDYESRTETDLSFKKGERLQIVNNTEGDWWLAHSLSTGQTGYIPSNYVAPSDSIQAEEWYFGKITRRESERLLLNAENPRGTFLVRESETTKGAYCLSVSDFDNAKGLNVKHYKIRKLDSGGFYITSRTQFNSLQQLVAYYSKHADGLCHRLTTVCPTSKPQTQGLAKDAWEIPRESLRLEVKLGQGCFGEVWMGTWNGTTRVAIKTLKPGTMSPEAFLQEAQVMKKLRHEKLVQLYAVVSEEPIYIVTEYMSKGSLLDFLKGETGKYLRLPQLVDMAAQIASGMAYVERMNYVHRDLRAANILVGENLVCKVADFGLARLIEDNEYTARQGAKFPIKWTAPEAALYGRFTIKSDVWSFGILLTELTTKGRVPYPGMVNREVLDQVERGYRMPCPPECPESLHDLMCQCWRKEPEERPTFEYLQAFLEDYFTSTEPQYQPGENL
# T2 sequence (P07947 whole entry, the tested form may be a part): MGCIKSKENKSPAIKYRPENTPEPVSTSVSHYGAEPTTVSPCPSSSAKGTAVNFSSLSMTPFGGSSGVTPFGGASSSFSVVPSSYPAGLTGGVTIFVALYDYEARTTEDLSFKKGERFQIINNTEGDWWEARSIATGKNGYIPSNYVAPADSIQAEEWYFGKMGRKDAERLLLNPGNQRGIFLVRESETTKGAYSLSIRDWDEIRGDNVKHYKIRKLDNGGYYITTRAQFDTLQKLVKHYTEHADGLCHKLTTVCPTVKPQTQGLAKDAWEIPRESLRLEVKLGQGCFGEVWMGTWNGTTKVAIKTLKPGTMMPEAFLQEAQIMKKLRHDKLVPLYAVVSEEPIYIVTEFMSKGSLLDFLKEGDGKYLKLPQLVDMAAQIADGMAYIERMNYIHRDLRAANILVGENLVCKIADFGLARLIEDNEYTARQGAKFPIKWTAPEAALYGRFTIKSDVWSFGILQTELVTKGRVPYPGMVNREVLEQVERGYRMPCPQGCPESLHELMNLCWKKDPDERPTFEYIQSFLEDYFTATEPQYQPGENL
# T1 sequence (O43639 whole entry, the tested form may be a part): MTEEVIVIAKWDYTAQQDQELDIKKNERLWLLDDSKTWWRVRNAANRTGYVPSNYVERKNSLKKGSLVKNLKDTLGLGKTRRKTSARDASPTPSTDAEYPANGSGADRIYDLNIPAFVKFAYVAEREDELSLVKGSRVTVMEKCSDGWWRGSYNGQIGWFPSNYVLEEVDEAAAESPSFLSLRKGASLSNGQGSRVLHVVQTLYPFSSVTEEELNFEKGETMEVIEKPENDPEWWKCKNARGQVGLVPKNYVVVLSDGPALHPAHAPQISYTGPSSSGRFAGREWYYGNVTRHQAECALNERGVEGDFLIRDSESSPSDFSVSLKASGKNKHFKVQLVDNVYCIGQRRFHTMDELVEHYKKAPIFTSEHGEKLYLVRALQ
# T8 sequence (Q9BRG2 whole entry, the tested form may be a part): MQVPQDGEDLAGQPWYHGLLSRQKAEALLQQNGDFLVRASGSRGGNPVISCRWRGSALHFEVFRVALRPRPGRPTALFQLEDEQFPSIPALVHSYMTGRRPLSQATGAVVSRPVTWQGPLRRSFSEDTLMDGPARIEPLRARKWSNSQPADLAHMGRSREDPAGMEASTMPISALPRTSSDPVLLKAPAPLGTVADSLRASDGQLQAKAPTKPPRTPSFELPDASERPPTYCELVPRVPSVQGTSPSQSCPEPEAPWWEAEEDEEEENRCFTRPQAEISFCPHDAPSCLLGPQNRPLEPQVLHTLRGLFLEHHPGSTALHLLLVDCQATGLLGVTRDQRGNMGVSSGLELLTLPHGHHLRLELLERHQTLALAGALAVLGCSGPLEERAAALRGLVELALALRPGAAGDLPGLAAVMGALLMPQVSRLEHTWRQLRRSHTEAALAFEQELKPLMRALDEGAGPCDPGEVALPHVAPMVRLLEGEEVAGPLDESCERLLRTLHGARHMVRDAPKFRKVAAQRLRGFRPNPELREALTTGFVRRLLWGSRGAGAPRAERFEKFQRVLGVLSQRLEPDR
structure (smiles),measurement,setting,value
CC(C)C[C@H](NC(=O)[C@@H]1CCCN1C(=O)[C@H](C)NC(=O)[C@@H](NC(=O)[C@H](Cc1ccc(OP(=O)(O)O)cc1)NC(=O)CNC(=O)[C@H](CC(=O)O)NC(=O)[C@@H](NC(=O)[C@@H](N)CCC(=O)O)[C@@H](C)O)C(C)C)C(=O)N[C@H](C(=O)N[C@@H](CS)C(=O)N[C@@H](CO)C(=O)N[C@@H](CC(=O)O)C(=O)O)[C@@H](C)O [ErbB2 pY1127],Kd,[1]; [9],1.56 µM
same,Kd,[1]; [10],0.46 µM
same,Kd,[2]; [9],0.0053 µM
same,Kd,[2]; [10],0.0651 µM
same,Kd,[3]; [9],0.035 µM
same,Kd,[3]; [10],0.38 µM
same,Kd,[3]; [11],0.25 µM
same,Kd,"[4]; protein PLCG2-N, PM assay replicate # 39337, array fabrication # 39329",4.16 µM
same,Kd,"[4]; protein PLCG2-NC, PM assay replicate # 39336, array fabrication # 39329",1.60 µM
same,Kd,[4]; [12],0.58 µM
same,Kd,"[5]; protein SYK-C, PM assay replicate # 39336, array fabrication # 39329",2.39 µM
same,Kd,"[5]; protein SYK-C, PM assay replicate # 39337, array fabrication # 39329",1.92 µM
same,Kd,"[5]; protein SYK-N, PM assay replicate # 39336, array fabrication # 39329",2.33 µM
same,Kd,"[5]; protein SYK-N, PM assay replicate # 39337, array fabrication # 39329",3.21 µM
same,Kd,"[5]; protein SYK-NC, PM assay replicate # 39336, array fabrication # 39329",1.30 µM
same,Kd,[5]; [13],0.96 µM
same,Kd,[6]; [9],3.20 µM
same,Kd,[6]; [10],0.46 µM
same,Kd,[6]; [11],2.00 µM
same,Kd,"[7]; protein PIK3R3-C, PM assay replicate # 39336, array fabrication # 39329",1.21 µM
same,Kd,"[7]; protein PIK3R3-C, PM assay replicate # 39337, array fabrication # 39329",2.04 µM
same,Kd,"[7]; protein PIK3R3-N, PM assay replicate # 39336, array fabrication # 39329",0.00698 µM
same,Kd,"[7]; protein PIK3R3-N, PM assay replicate # 39337, array fabrication # 39329",0.0758 µM
same,Kd,"[7]; protein PIK3R3-NC, PM assay replicate # 39336, array fabrication # 39329",0.10 µM
same,Kd,[7]; [14],0.0151 µM
same,Kd,"[7]; protein PIK3R3-NC, PM assay replicate # 39603, array fabrication # 39392",0.05 µM
same,Kd,[8]; [9],0.15 µM
same,Kd,[8]; [10],1.15 µM
CCN(CC)c1ccc2c(-c3ccc(C(=O)N[C@@H](CC(N)=O)C(=O)NCC(=O)N4CCC[C@H]4C(=O)N4CCC[C@H]4C(=O)N[C@@H](CCCCN)C(=O)N[C@@H](C)C(=O)N[C@@H](CCC(=O)O)C(=O)N[C@@H](CC(=O)O)C(=O)N[C@@H](CCC(=O)O)C(=O)N[C@@H](Cc4ccc(OP(=O)(O)O)cc4)C(=O)N[C@H](C(=O)N[C@@H](CC(N)=O)C(=O)N[C@@H](CCC(=O)O)C(=O)N4CCC[C@H]4C(=O)N[C@@H](CC(C)C)C(=O)N[C@@H](Cc4ccc(O)cc4)C(=O)N[C@@H](CC(C)C)C(=O)N[C@@H](CC(=O)O)C(=O)O)C(C)C)cc3C(=O)[O-])c3ccc(=[N+](CC)CC)cc-3oc2c1 [ErbB4 1202 (18-mer)] (HELM PEPTIDE1{[CCN(CC)c1ccc2c(-c3ccc(C(=O)[*:2])cc3C(=O)[O-])c3ccc(=[N+](CC)CC)cc-3oc2c1].N.G.P.P.K.A.E.D.E.[O=C([C@H](Cc1ccc(OP(=O)(O)O)cc1)N[*:1])[*:2]].V.N.E.P.L.Y.L.D}$$$$V2.0),Kd,[1]; [15],10.06 µM
same,Kd,[2]; [15],0.35 µM
same,Kd,[2]; [10],1.44 µM
same,Kd,[2]; [16],1.61 µM
same,Kd,[2]; [17],0.42 µM
same,Kd,[3]; [15],0.40 µM
same,Kd,[4]; [12],1.53 µM
same,Kd,"[4]; protein PLCG2-NC, PM assay replicate # 39351, array fabrication # 39336",0.41 µM
same,Kd,"[4]; protein PLCG2-NC, PM assay replicate # 39352, array fabrication # 39336",0.61 µM
same,Kd,"[5]; protein SYK-NC, PM assay replicate # 39307, array fabrication # 39286",0.95 µM
same,Kd,[5]; [13],1.42 µM
same,Kd,"[5]; protein SYK-NC, PM assay replicate # 39351, array fabrication # 39336",0.81 µM
same,Kd,"[5]; protein SYK-NC, PM assay replicate # 39352, array fabrication # 39336",1.15 µM
same,Kd,[6]; [15],0.45 µM
same,Kd,[6]; [10],7.84 µM
same,Kd,[6]; [16],2.29 µM
same,Kd,[6]; [17],2.39 µM
same,Kd,[7]; [14],1.18 µM
same,Kd,"[7]; protein PIK3R3-NC, PM assay replicate # 39352, array fabrication # 39336",1.72 µM
same,Kd,[8]; [15],1.00 µM

# Reference: PMC3433420 (PLoS ONE, 2012)
